Experimental data: patent publication US11918352B2, “Non-invasive determination of a physiological state of interest in a subject” (ISBRG CORP., priority 2018, dated 2024)

Legend:
[1] = Analyte composition of a subject after consumption (Table 2, simplified illustrative data set); type: in vivo, human; details: for Analyte level, intoxicated state: 1 hr after consumption, THC induced intoxicated state; for Analyte level, post-intoxicated state: 36 hr after consumption
Description: For example, which is not to be considered limiting, in a THC induced intoxicated state, a subject may comprise the analyte composition presented in Table 1. It is to be understood that this table presents a simplified data set to exemplify the method described herein. Other analytes, which may include known analytes or ghost analytes, are indicated as analytes A, B . . . C; A′, B′, . . . C′; A″, B″ . . . C″. These other analytes may increase or decrease in response to, or that are correlated with, the physiological condition and they may be included in this analysis.
In this example, the result may be considered positive for a THC-induced intoxicated state if the Index is greater than a preset value which is determined based on an analysis of the analytes determined in subjects who were exposed to a control treatment, or a range of THC under controlled conditions, for example an Index value of (2+A)/(C+ . . . +C) may be an indication of a positive result for the state of THC-induced intoxication.

[2] = cited from earlier work

SMILES | Analyte level, intoxicated state [1] | Analyte level, post-intoxicated state [1] | Residual THC in serum ([2]; chronic users of marijuana, detected for 24 to 48 hours or longer, serum) | Residual THC in whole blood ([2]; chronic users of marijuana, detected for 24 to 48 hours or longer, whole blood) | Time of THC peak ([2]; smoked marijuana, after inhaling) | THC level remaining ([2]; smoked marijuana, for 8 hours or more)
CCCCCc1cc(O)c2c(c1)OC(C)(C)C1CCC(CO)=CC21 (stereo not shown) [11-OH-THC, 11-hydroxy THC] | 5 ng/mL | 2 ng/mL |  |  |  | 
CCCCCc1cc(O)c2c(c1)OC(C)(C)[C@@H]1CCC(C)=C[C@@H]21 [THC, delta-9-tetrahydrocannabinol] | 78 ng/mL | 8 ng/mL | 1.0 to 6.4 ng/mL | 0.5 to 3.2 ng/mL | first few minutes | 1 to 2 ng/mL
CCCCCc1cc(O)c2c(c1)OC(C)(C)[C@@H]1CCC(C(=O)O)=C[C@@H]21 [THC-COOH, 11-nor-9-carboxy-THC] | 5 ng/mL | 11 ng/mL |  |  |  | 
